Assay results published in patent US8178506B2, “Oligomeric compounds and compositions for use in modulation of small non-coding RNAs” (Regulus Therapeutics Inc., priority 2003, dated 2012).
“And” between values parts separate entries of the source, which are not always exact repeats. Identical values can stand only once. In the oligonucleotide strings, read from the 5' end, every base follows the letter of its sugar. An asterisk marks phosphorothioate; unmarked linkages are phosphodiester. Other units and linkages are bracketed, terminal groups are in braces. A string of capitals states the bases alone. e = 2'-O-(2-methoxyethyl) (MOE); [5mC] = 5-methylcytosine; d = 2'-deoxy (DNA)

Legend:
PEPCK-c = PEPCK-c mRNA expression in HepG2 cells; format: cell-based, human; settings: for PEPCKc mRNA: four hours, UTC = 100; for PEPCKc mRNA expression: Experiment 2, insulin treated: HepG2 cells transfected with oligomeric compound, 1 nM insulin for four hours, UTC + 1 nM insulin = 100
HeLa cells = assay: Cell cycle assay in HeLa cells; format: cell-based, human; settings: HeLa cells; for % cells in cell cycle phase: G1 / % cells in cell cycle phase: G2/M / % cells in cell cycle phase: S / % cells in cell cycle phase: aneuploid / % cells in cell cycle phase: subG1: 48 hours after treatment, relative to untreated control (UTC=100)
[1] = HepG2 cells, Experiment 1, basal (no insulin)
[2] = Experiment 1, basal (no insulin), HepG2, 100 nM oligomeric compound
[3] = Experiment 2, 1 nM insulin treated, HepG2, 100 nM oligomeric compound
[4] = 150 nM oligomeric compound, 24 hours, relative to untreated control (UTC = 100)
[5] = Experiment 3, basal (no insulin), HepG2 cells, 48 hours post-transfection
[6] = Experiment 4, insulin-sensitization: HepG2 cells treated with 1 nM insulin for four hours, 48 h post-transfection, mRNA by real-time PCR
[7] = 150 nM, 48 hours, relative to untreated control

327899 (antisense e[5mC]*eA*eG*eT*eG*eA*eA*eT*eT*e[5mC]*eT*eA*e[5mC]*e[5mC]*eA*eG*eT*eG*e[5mC]*e[5mC]*eA*eT*eA) [compound 327899]
PEPCKc mRNA (PEPCK-c; [1]): 42

327925 (antisense eT*eA*eG*e[5mC]*eT*eG*eG*eT*eT*eG*eA*eA*eG*eG*eG*eG*eA*e[5mC]*e[5mC]*eA*eA) [compound 327925]
PEPCK-c (% UTC) (PEPCK-c; [2]): 145 % UTC
PEPCK-c (% UTC) (PEPCK-c; [3]): 182 % UTC

338664 (antisense e[5mC]*eA*eG*eA*e[5mC]*eT*e[5mC]*e[5mC]*e[5mC]*eA*eA*e[5mC]*eT*eG*eA*e[5mC]*e[5mC]*eA*eG*eA) [compound 338664]
PEPCK-c (% UTC) (PEPCK-c; [2]): 75 % UTC
PEPCK-c (% UTC) (PEPCK-c; [3]): 76 % UTC

327934 (antisense eG*eG*eT*eA*e[5mC]*eA*eA*eT*e[5mC]*eA*eA*e[5mC]*eG*eG*eT*e[5mC]*eG*eA*eT*eG*eG*eT) [compound 327934]
PEPCK-c (% UTC) (PEPCK-c; [2]): 99 % UTC
PEPCK-c (% UTC) (PEPCK-c; [3]): 105 % UTC
% cells aneuploid (HeLa cells; [4]): 55% and 77%
% cells in cell cycle phase G1 (HeLa cells; [4]): 87% and 118%
% cells in cell cycle phase G2/M (HeLa cells; [4]): 160% and 137%
% cells in cell cycle phase S (HeLa cells; [4]): 85% and 66%
% cells in cell cycle phase subG1 (HeLa cells; [4]): 278% and 204%
% cells in cell cycle phase: G1 (HeLa cells; 150 nM oligomeric compound): 62% and 66%
% cells in cell cycle phase: G2/M (HeLa cells; 150 nM oligomeric compound): 152% and 155%
% cells in cell cycle phase: S (HeLa cells; 150 nM oligomeric compound): 156% and 148%
% cells in cell cycle phase: aneuploid (HeLa cells; 150 nM oligomeric compound): 92% and 117%

341806 (antisense GCCAATATTTCTGTGCTGCTA; all 2'-MOE, all phosphorothioate, methylation of C not given here) [compound 341806]
PEPCKc mRNA (PEPCK-c; [1]): 79

327900 (antisense e[5mC]*eT*eG*e[5mC]*e[5mC]*eT*eG*eT*e[5mC]*eT*eG*eT*eG*e[5mC]*e[5mC]*eT*eG*e[5mC]*eT*eG*eT) [compound 327900]
PEPCKc mRNA (PEPCK-c; [1]): 88

327880 (antisense eA*e[5mC]*eA*eA*eA*eT*eT*e[5mC]*eG*eG*eT*eT*e[5mC]*eT*eA*e[5mC]*eA*eG*eG*eG*eT*eA) [compound 327880]
PEPCK-c (% UTC) (PEPCK-c; [2]): 110 % UTC
PEPCK-c (% UTC) (PEPCK-c; [3]): 125 % UTC

327920 (antisense eG*eA*eG*eA*e[5mC]*e[5mC]*e[5mC]*eA*eG*eT*eA*eG*e[5mC]*e[5mC]*eA*eG*eA*eT*eG*eT*eA*eG*e[5mC]*eT) [compound 327920]
PEPCKc mRNA expression (PEPCK-c): 59
PEPCKc mRNA (PEPCK-c; [1]): 52

327887 (antisense eG*e[5mC]*eG*eA*e[5mC]*e[5mC]*eA*eT*eG*eG*e[5mC]*eT*eG*eT*eA*eG*eA*e[5mC]*eT*eG*eT*eT*eA) [compound 327887]
PEPCKc mRNA (PEPCK-c; [1]): 83

328125 (antisense eT*eA*eT*eG*eA*eA*eA*eT*eG*e[5mC]*e[5mC]*eA*eG*eA*eG*e[5mC]*eT*eG*e[5mC]*e[5mC]*eA) [compound 328125]
PEPCKc mRNA expression (PEPCK-c): 77

328759 (antisense eG*eA*eG*eG*eG*dA*dT*dT*dG*dT*dA*dT*dG*dA*dA*e[5mC]*eA*eT*e[5mC]*eT) [compound 328759]
PEPCK-c (% UTC) (PEPCK-c; [5]): 98 % UTC
PEPCK-c (% UTC) (PEPCK-c; [6]): 92 % UTC
% cells aneuploid (HeLa cells; [4]): 184%
% cells in cell cycle phase G1 (HeLa cells; [4]): 88%
% cells in cell cycle phase G2/M (HeLa cells; [4]): 168%
% cells in cell cycle phase S (HeLa cells; [4]): 78%
% cells in cell cycle phase subG1 (HeLa cells; [4]): 239%
% cells in cell cycle phase: G1 (HeLa cells; 150 nM oligomeric compound): 50%
% cells in cell cycle phase: G2/M (HeLa cells; 150 nM oligomeric compound): 343%
% cells in cell cycle phase: S (HeLa cells; 150 nM oligomeric compound): 31%
% cells in cell cycle phase: aneuploid (HeLa cells; 150 nM oligomeric compound): 148%
% cells in cell cycle phase: subG1 (HeLa cells; 150 nM oligomeric compound): 1744%
% cells in cell cycle phase G1 (HeLa cells; [7]): 40%
% cells in cell cycle phase G2/M (HeLa cells; [7]): 203%
% cells in cell cycle phase S (HeLa cells; [7]): 82%
% cells in cell cycle phase aneuploid (HeLa cells; [7]): 223%
% cells in cell cycle phase subG1 (HeLa cells; [7]): 797%

327895 (antisense eA*e[5mC]*eA*eA*eA*e[5mC]*eA*e[5mC]*e[5mC]*eA*eT*eT*eG*eT*e[5mC]*eA*e[5mC]*eA*e[5mC]*eT*e[5mC]*e[5mC]*eA) [compound 327895]
PEPCKc mRNA (PEPCK-c; [1]): 71

327893 (antisense eA*eA*e[5mC]*e[5mC]*eA*e[5mC]*eA*e[5mC]*eA*eA*e[5mC]*e[5mC]*eT*eA*e[5mC]*eT*eA*e[5mC]*e[5mC]*eT*e[5mC]*eA) [compound 327893]
PEPCKc mRNA (PEPCK-c; [1]): 81

327922 (antisense eT*e[5mC]*eA*eG*eT*eT*eT*eT*eG*e[5mC]*eA*eT*eG*eG*eA*eT*eT*eT*eG*e[5mC]*eA*e[5mC]*eA) [compound 327922]
PEPCK-c (% UTC) (PEPCK-c; [2]): 77 % UTC
PEPCK-c (% UTC) (PEPCK-c; [3]): 76 % UTC
% cells aneuploid (HeLa cells; [4]): 104%
% cells in cell cycle phase G1 (HeLa cells; [4]): 97%
% cells in cell cycle phase G2/M (HeLa cells; [4]): 114%
% cells in cell cycle phase S (HeLa cells; [4]): 96%
% cells in cell cycle phase subG1 (HeLa cells; [4]): 131%
% cells in cell cycle phase: G1 (HeLa cells; 150 nM oligomeric compound): 96%
% cells in cell cycle phase: G2/M (HeLa cells; 150 nM oligomeric compound): 109%
% cells in cell cycle phase: S (HeLa cells; 150 nM oligomeric compound): 105%
% cells in cell cycle phase: aneuploid (HeLa cells; 150 nM oligomeric compound): 91%
% cells in cell cycle phase: subG1 (HeLa cells; 150 nM oligomeric compound): 81%

327913 (antisense eA*eA*e[5mC]*e[5mC]*eG*eA*eT*eT*eT*e[5mC]*eA*eA*eA*eT*eG*eG*eT*eG*e[5mC]*eT*eA*eG) [compound 327913]
PEPCK-c (% UTC) (PEPCK-c; [2]): 229 % UTC
PEPCK-c (% UTC) (PEPCK-c; [3]): 268 % UTC

341800 (antisense AAGCCCAAAAGGAGAAUUCUUUG; all 2'-MOE, all phosphorothioate, methylation of C and T or U not given here) [compound 341800]
PEPCKc mRNA (PEPCK-c; [1]): 71

341804 (antisense ATCTGCACTGTCAGCACTTT; all 2'-MOE, all phosphorothioate, methylation of C not given here) [compound 341804]
PEPCKc mRNA (PEPCK-c; [1]): 44

327916 (antisense eT*eG*eG*e[5mC]*eA*eT*eT*e[5mC]*eA*e[5mC]*e[5mC]*eG*e[5mC]*eG*eT*eG*e[5mC]*e[5mC]*eT*eT*eA*eA) [compound 327916]
PEPCKc mRNA expression (PEPCK-c): 88
PEPCKc mRNA (PEPCK-c; [1]): 88

341807 (antisense CTGGGACTTTGTAGGCCAGTT; all 2'-MOE, all phosphorothioate, methylation of C not given here) [compound 341807]
PEPCKc mRNA (PEPCK-c; [1]): 97

327941 (antisense eA*eA*e[5mC]*e[5mC]*e[5mC]*eA*e[5mC]*e[5mC]*eG*eA*e[5mC]*eA*eG*e[5mC]*eA*eA*eT*eG*eA*eA*eT*eG*eT*eT) [compound 327941]
PEPCK-c (% UTC) (PEPCK-c; [2]): 101 % UTC
PEPCK-c (% UTC) (PEPCK-c; [3]): 98 % UTC

328114 (antisense eA*eA*eT*e[5mC]*eT*e[5mC]*eA*eT*eT*eT*eT*e[5mC]*eA*eT*eA*e[5mC]*eT*eT*eG*e[5mC]*eA) [compound 328114]
PEPCKc mRNA expression (PEPCK-c): 41

327890 (antisense eA*eG*e[5mC]*eA*e[5mC]*eA*eA*eA*e[5mC]*eT*eA*e[5mC]*eT*eA*e[5mC]*e[5mC]*eT*e[5mC]*eA) [compound 327890]
PEPCK-c (% UTC) (PEPCK-c; [2]): 85 % UTC
PEPCK-c (% UTC) (PEPCK-c; [3]): 113 % UTC

328677 (eT*e[5mC]*e[5mC]*eT*eG*dG*dA*dT*dG*dA*dT*dA*dT*d[5mC]*dT*eA*e[5mC]*e[5mC]*eT*e[5mC]; antisense) [compound 328677]
PEPCK-c (% UTC) (PEPCK-c; [5]): 145 % UTC
PEPCK-c (% UTC) (PEPCK-c; [6]): 117 % UTC

327918 (antisense e[5mC]*eT*eA*eG*eT*eA*e[5mC]*eA*eT*e[5mC]*eA*eT*e[5mC]*eT*eA*eT*eA*e[5mC]*eT*eG*eT*eA) [compound 327918]
PEPCKc mRNA expression (PEPCK-c): 107
PEPCKc mRNA (PEPCK-c; [1]): 81

327923 (antisense eG*eA*eA*eA*eG*eA*eG*eA*e[5mC]*e[5mC]*eG*eG*eT*eT*e[5mC]*eA*e[5mC]*eT*eG*eT*eG*eA) [compound 327923]
PEPCKc mRNA expression (PEPCK-c): 125
PEPCKc mRNA (PEPCK-c; [1]): 83

327886 (antisense e[5mC]*eG*e[5mC]*eG*eT*eA*e[5mC]*e[5mC]*eA*eA*eA*eA*eG*eT*eA*eA*eT*eA*eA*eT*eG) [compound 327886]
PEPCKc mRNA (PEPCK-c; [1]): 61

327954 (antisense eA*e[5mC]*eA*eA*eA*eG*eT*eT*e[5mC]*eT*eG*eT*eG*eA*eT*eG*e[5mC]*eA*e[5mC]*eT*eG*eA) [compound 327954]
PEPCK-c (% UTC) (PEPCK-c; [2]): 79 % UTC
PEPCK-c (% UTC) (PEPCK-c; [3]): 102 % UTC

328685 (e[5mC]*eG*eG*e[5mC]*e[5mC]*dG*dG*dA*dG*d[5mC]*d[5mC]*dA*dT*dA*dG*eA*e[5mC]*eT*e[5mC]*eG; antisense) [compound 328685]
PEPCK-c (% UTC) (PEPCK-c; [5]): 219 % UTC
PEPCK-c (% UTC) (PEPCK-c; [6]): 184 % UTC

341803 (antisense CCACACACTTCCTTACATTCCA; all 2'-MOE, all phosphorothioate, methylation of C not given here) [compound 341803]
PEPCKc mRNA (PEPCK-c; [1]): 110

341805 (antisense ACCCTTATCAGTTCTCCGTCCA; all 2'-MOE, all phosphorothioate, methylation of C not given here) [compound 341805]
PEPCKc mRNA (PEPCK-c; [1]): 40

328691 (e[5mC]*e[5mC]*e[5mC]*e[5mC]*eA*dT*d[5mC]*dT*dT*dA*dG*d[5mC]*dA*dT*d[5mC]*eT*eA*eA*eG*eG) [compound 328691]
PEPCK-c (% UTC) (PEPCK-c; [5]): 108 % UTC
PEPCK-c (% UTC) (PEPCK-c; [6]): 97 % UTC
